Experimental findings from patent US10239887B2, “Positive allosteric modulators of the muscarinic acetylcholine receptor M4” (Vanderbilt University, priority 2016, dated 2019) are described below.

This experiment addresses T1, human mAChR M4 (Homo sapiens, UniProt P08173).
T1 sequence (P08173 1-479): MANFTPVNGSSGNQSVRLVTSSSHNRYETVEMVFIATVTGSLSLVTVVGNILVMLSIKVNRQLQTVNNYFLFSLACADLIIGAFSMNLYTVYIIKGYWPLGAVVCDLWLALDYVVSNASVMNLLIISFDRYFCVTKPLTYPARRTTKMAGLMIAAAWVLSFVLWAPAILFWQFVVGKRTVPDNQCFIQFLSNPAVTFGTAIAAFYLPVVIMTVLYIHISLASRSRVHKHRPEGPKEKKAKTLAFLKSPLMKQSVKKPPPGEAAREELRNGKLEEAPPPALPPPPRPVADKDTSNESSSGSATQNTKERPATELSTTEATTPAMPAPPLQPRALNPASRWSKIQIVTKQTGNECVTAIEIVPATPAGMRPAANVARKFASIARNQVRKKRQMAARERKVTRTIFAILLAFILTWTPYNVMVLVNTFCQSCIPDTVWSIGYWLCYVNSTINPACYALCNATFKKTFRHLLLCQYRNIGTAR
Put plainly: mAChR M4 cell-based functional assay (calcium flux), human M4. The note with it: for EC50: Human M4 EC50 (nM). In general terms: Calcium assays in cells follow changes in intracellular calcium, usually with a dye or a luminescent sensor.

Where [1] appears, read: Table 10, calcium flux, PAM activity with EC20 acetylcholine.
Setting [2] is: Table 10, % ACh maximum at 30 μM.

Each structure is given as a SMILES string. Structures can show the parent of a compound that is named as a salt. Where two headings read alike, the source gives them in different places.

Turning to `Cc1cc(CNc2ncnc3c2sc2nnc(C)c(C)c23)cnc1C` [Compound 148, N-[(5,6-dimethyl-3-pyridyl)methyl]-3,4-dimethyl-pyrimido [4′,5′:4,5]thieno[2,3-c] pyridazin-8-amine hydrochloride], the Emax was found to be 84%. Also, the EC50 under setting [1] is 522 nM.

For the molecule `Cc1nnc2sc3c(NCc4ccc(C(=O)NC5(C)CC5)cc4)ncnc3c2c1C` [Compound 149, 4-[[(3,4-dimethylpyrimido [4′,5′:4,5]thieno[2,3-c]pyridazin-8-yl)amino]methyl]-N-(1-methylcyclopropyl) benzamide], the EC50 under setting [1] came out at 156 nM. For the same molecule, the Emax under setting [2] was 78.3%.

For `Cc1nnc2sc3c(NCc4ccc(C(=O)NC5CCC5)cc4)ncnc3c2c1C` [Compound 150, N-cyclobutyl-4-[[(3,4-dimethylpyrimido [4′,5′:4,5]thieno[2,3-c]pyridazin-8-yl)amino]methyl]benzamide], under setting [1], the EC50 is 105 nM. The Emax under setting [2] was determined as 74.9%.

Regarding `Cc1nnc2sc3c(NCc4ccc(C(=O)NC5CC(F)C5)cc4)ncnc3c2c1C` (stereo not shown) [Compound 151, 4-[[(3,4-dimethylpyrimido [4′,5′:4,5]thieno[2,3-c]pyridazin-8-yl)amino]methyl]-N-(3-fluorocyclobutyl) benzamide], the EC50 under setting [1] came to 27.7 nM. Besides, the maximum response (Emax) under setting [2] came out at 87.4%.

On to `Cc1nnc2sc3c(NCc4ccc(C(=O)NC5CC(F)(F)C5)cc4)ncnc3c2c1C` [Compound 152, N-(3,3-difluorocyclobutyl)-4-[[(3,4-dimethylpyrimido [4′,5′:4,5]thieno[2,3-c]pyridazin-8-yl)amino]methyl]benzamide], for which, under setting [1], the concentration for a half-maximal effect (EC50) was 59.2 nM. For the same molecule, the Emax under setting [2] came to 86.9%.

Take `Cc1nnc2sc3c(NCc4ccc(C(=O)NC5CCCC5)cc4)ncnc3c2c1C` [Compound 153, N-cyclopentyl-4-[[(3,4-dimethylpyrimido [4′,5′:4,5]thieno[2,3-c]pyridazin-8-yl)amino]methyl]benzamide]: under setting [1], the EC50 is 114 nM. Also, the Emax under setting [2] is 87.4%.

With `Cc1nnc2sc3c(NCc4ccc(C(=O)NC5CC6(COC6)C5)cc4)ncnc3c2c1C` [Compound 154, 4-[[(3,4-dimethylpyrimido [4′,5′:4,5]thieno[2,3-c]pyridazin-8-yl)amino]methyl]-N-(2-oxaspiro [3.3]heptan-6-yl)benzamide], the EC50 under setting [1] is 109 nM. Also, the Emax under setting [2] amounted to 87.2%.

With `Cc1nnc2sc3c(NCc4ccc(C(=O)NC(C)C)cc4)ncnc3c2c1C` [Compound 155, 4-[[(3,4-dimethylpyrimido [4′,5′:4,5]thieno[2,3-c]pyridazin-8-yl)amino]methyl]-N-isopropyl-benzamide], the EC50 under setting [1] is 174 nM. In addition, under setting [2], the Emax was 88.1%.

`Cc1nnc2sc3c(NCc4ccc(C(=O)N5CC(F)(F)C5)cc4)ncnc3c2c1C` [Compound 156, (3,3-difluoroazetidin-1-yl)-[4-[[(3,4-dimethlpyrimido [4′,5′:4,5]thieno[2,3-c]pyridazin-8-yl)amino]methyl]phenyl]methanone]: the concentration giving a half-maximal response (EC50) under setting [1] was found to be 590 nM. Further, the Emax under setting [2] stood at 84.9%.

As to `Cc1nnc2sc3c(NCc4ccc(C(=O)N[C@H](C)C(F)(F)F)cc4)ncnc3c2c1C` [Compound 157, 4-[[(3,4-dimethylpyrimido [4′,5′:4,5]thieno[2,3-c]pyridazin-8-yl)amino]methyl]-N-[(1R)-2,2,2-trifluoro-1-methyl-ethyl]benzamide], the EC50 under setting [1] was 244 nM. Under setting [2], the Emax worked out at 86.1%.

For the molecule `Cc1nnc2sc3c(NCc4ccc(C(=O)NC(C)C(C)(C)CO)cc4)ncnc3c2c1C` (stereo not shown) [Compound 158, 4-[[(3,4-dimethylpyrimido [4′,5′:4,5]thieno[2,3-c]pyridazin-8-yl)amino]methyl]-N-(3-hydroxy-1,2,2-trimethyl-propyl) benzamide], the EC50 under setting [1] came out at 220 nM. For the same molecule, under setting [2], the Emax is 85%.

In the case of `Cc1nnc2sc3c(NCc4ccc(C(=O)NC5CCCCC5)cc4)ncnc3c2c1C` [Compound 159, N-cyclohexyl-4-[[(3,4-dimethylpyrimido [4′,5′:4,5]thieno[2,3-c]pyridazin-8-yl)amino]methyl]benzamide], the EC50 under setting [1] was determined as 380 nM. Also, the Emax under setting [2] came to 84.8%.

For `Cc1nnc2sc3c(NCc4ccc(C(=O)NC5CCC(C)(C)CC5)cc4)ncnc3c2c1C` [Compound 160, N-(4,4-dimethylcyclohexyl)-4-[[(3,4-dimethylpyrimido [4′,5′:4,5]thieno[2,3-c]pyridazin-8-yl)amino]methyl]benzamide], the EC50 under setting [1] is 980 nM. Under setting [2], the Emax is 86%.

Take `Cc1nnc2sc3c(N4CC(Nc5ccnc(F)c5F)C4)ncnc3c2c1C` [Compound 161, N-[1-(3,4-dimethylpyrimido[4′,5′:4,5]thieno[2,3-c]pyridazin-8-yl)azetidin-3-yl]-2,3-difluoro-pyridin-4-amine; 2,2,2-trifluoroacetic acid]: the EC50 under setting [1] was 84.3 nM. Also, the Emax under setting [2] is 80.1%.

As for `Cc1nnc2sc3c(NC4CC5(C4)CN(c4ncc(Cl)cc4Cl)C5)ncnc3c2c1C` [Compound 162, N-[2-(3,5-dichloro-2-pyridyl)-2-azaspiro[3.3]heptan-6-yl]-3,4-dimethyl-pyrimido[4′,5′:4,5]thieno [2,3-c]pyridazin-8-amine], the EC50 under setting [1] was determined as 5630 nM. Further, the Emax under setting [2] worked out at 48.3%.

As for `Cc1nnc2sc3c(NC4CC5(C4)CN(c4ncc(F)cc4Cl)C5)ncnc3c2c1C` [Compound 163, N-[2-(3-chloro-5-fluoro-2-pyridyl)-2-azaspiro [3.3]heptan-6-yl]-3,4-dimethyl-pyrimido [4′,5′:4,5]thieno[2,3-c] pyridazin-8-amine], under setting [1], the EC50 was determined as 1440 nM. The Emax under setting [2] is 42.9%.

As to `Cc1nnc2sc3c(NC4CC5(C4)CN(c4ncc(Cl)cc4F)C5)ncnc3c2c1C` [Compound 164, N-[2-(5-chloro-3-fluoro-2-pyridyl)-2-azaspiro [3.3]heptan-6-yl]-3,4-dimethyl-pyrimido [4′,5′:4,5]thieno[2,3-c] pyridazin-8-amine], the EC50 under setting [1] was found to be 3500 nM. The Emax under setting [2] worked out at 22.7%.

Take `Cc1cnc(N2CC3(CC(Nc4ncnc5c4sc4nnc(C)c(C)c45)C3)C2)nc1` [Compound 165, 3,4-dimethyl-N-[2-(5-methylpyrimidin-2-yl)-2-azaspiro[3.3]heptan-6-yl]pyrimido [4′,5′:4,5]thieno[2,3-c] pyridazin-8-amine]: the EC50 under setting [1] worked out at 2410 nM. Moreover, the maximal response (Emax) under setting [2] turned out to be 31.6%.

With `Cc1ncc(CN2CC3(CC(Nc4ncnc5c4sc4nnc(C)c(C)c45)C3)C2)cn1` [Compound 166, 3,4-dimethyl-N-[2-[(2-methylpyrimidin-5-yl)methyl]-2-azaspiro [3.3]heptan-6-yl]pyrimido [4′,5′:4,5]thieno[2,3-c] pyridazin-8-amine], under setting [1], the 50% effective concentration (EC50) was 1210 nM. Further, the Emax under setting [2] was found to be 34.7%.

Consider `Cc1nnc2sc3c(NC4CC5(C4)CN(C(=O)CC(F)(F)F)C5)ncnc3c2c1C` [Compound 168, 1-[6-[(3,4-dimethylpyrimido [4′,5′:4,5]thieno[2,3-c]pyridazin-8-yl)amino]-2-azaspiro[3.3]heptan-2-yl]-3,3,3-trifluoro-propan-1-one], for which, under setting [1], the EC50 turned out to be 3970 nM. Also, the Emax under setting [2] turned out to be 29%.

As for `Cc1nnc2sc3c(NC4CC5(C4)CN(C(=O)C4CCOCC4)C5)ncnc3c2c1C` [Compound 169, [6-[(3,4-dimethylpyrimido[4′,5′:4,5]thieno[2,3-c]pyridazin-8-yl)amino]-2-azaspiro[3.3]heptan-2-yl]-tetrahydropyran-4-yl-methanone], the EC50 (Table 10, unit μM (bounds)) was above 10000 nM. Moreover, the Emax under setting [2] turned out to be 34.9%.

On to `CCCCCC(=O)N1CC2(CC(Nc3ncnc4c3sc3nnc(C)c(C)c34)C2)C1` [Compound 170, 1-[6-[(3,4-dimethylpyrimido [4′,5′:4,5]thieno[2,3-c]pyridazin-8-yl)amino]-2-azaspiro[3.3]heptan-2-yl]hexan-1-one; 2,2,2-trifluoroacetate acid], for which the EC50 under setting [1] is 1260 nM. The Emax under setting [2] was 41%.

Consider `Cc1nnc2sc3c(N4CCC(C(C)(C)O)C4)ncnc3c2c1C` (stereo not shown) [Compound 171, 2-[1-(3,4-dimethylpyrimido [4′,5′:4,5]thieno[2,3-c]pyridazin-8-yl)pyrrolidin-3-yl]propan-2-ol], for which the EC50 under setting [1] was found to be 172 nM. In addition, the Emax under setting [2] was 30.9%.

With `Cc1nnc2sc3c(NC4CC5(C4)CN(C(=O)c4ccc(C(F)(F)F)cc4)C5)ncnc3c2c1C` [Compound 172, [6-[(3,4-dimethylpyrimido [4′,5′:4,5]thieno[2,3-c]pyridazin-8-yl)amino]-2-azaspiro[3.3]heptan-2-yl]-[4-(trifluoromethyl)phenyl]methanone], the EC50 under setting [1] was determined as 2950 nM. Further, the Emax under setting [2] stood at 39.5%.

In the case of `Cc1nnc2sc3c(N4CCC(C(=O)Nc5ccc(C(F)(F)F)cc5)C4)ncnc3c2c1C` (stereo not shown) [Compound 173, 1-(3,4-dimethylpyrimido [4′,5′:4,5]thieno[2,3-c]pyridazin-8-yl)-N-[4-(trifluoromethyl)phenyl] pyrrolidine-3-carboxamide], the EC50 under setting [1] stood at 3310 nM. The Emax under setting [2] turned out to be 24.4%.

Consider `Cc1nnc2sc3c(N4CCC(C(=O)Nc5ccccn5)C4)ncnc3c2c1C` (stereo not shown) [Compound 174, 1-(3,4-dimethylpyrimido [4′,5′:4,5]thieno[2,3-c]pyridazin-8-yl)-N-(2-pyridyl)pyrrolidine-3-carboxamide], for which the EC50 under setting [1] came out at 748 nM. Under setting [2], the Emax came to 31%.

In general, Emax refers to the size of the effect at its maximum, as opposed to the concentration needed. What is called EC50 is the concentration needed to bring the measured effect to its halfway point.
